In patent US20080076740A1, “Antiviral compounds” (GILEAD SCIENCES, INC., priority 2005, published 2008):
Where two headings read alike, the source gives them in different places.

Tests used:
[1] = Caco-2 permeability; format: in vitro ADME
[2] = Pharmacokinetics in dog; format: in vivo; conditions: for clearance: in vivo, read-out: Cl Dog (converted)
[3] = Pharmacokinetics in rat; format: in vivo; conditions: for clearance: in vivo, read-out: Cl Rat (converted)
[4] = biological target: Strand Transfer (Human immunodeficiency virus type 1 group M subtype B, UniProt P04585); test: Integrase strand transfer inhibition; format: biochemical, HIV
[5] = Hepatocyte stability, dog; conditions: hepatocytes
[6] = Cytotoxicity in MT4 cells; conditions: human
[7] = system: HIV; test: Anti-HIV activity in MT4 cells; format: cell-based; conditions: Human immunodeficiency virus 1
[8] = In vitro PBMC loading rate; format: in vitro ADME; conditions: human
Source text: In one embodiment, the invention is provides compounds capable of accumulating in human PBMC (peripheral blood mononuclear cells). PBMC refer to blood cells having round lymphocytes and monocytes. Physiologically, PBMC are critical components of the mechanism against infection. PBMC may be isolated from heparinized whole blood of normal healthy donors or buffy coats, by standard density gradient centrifugation and harvested from the interface, washed (e.g. phosphate-buffered saline) and stored in freezing medium. PBMC may be cultured in multi-well plates. At various times of culture, supernatant may be either removed for assessment, or cells may be harvested and analyzed (Smith R. etal (2003) Blood 102(7):2532-2540). The compounds of this embodiment may further comprise a phosphonate or phosphonate prodrug. More typically, the phosphonate or phosphonate prodrug can have the structure A^3 as described herein.

[9] = Hepatocyte stability, human; conditions: hepatocytes
[10] = Phosphonate prodrugs in vivo summary (pharmacokinetics); conditions: species not given
[11] = system: HIV; test: Antiviral activity in MT-2 cells; format: cell-based
[12] = in vitro; conditions: human
[13] = human, Caco-2 studies, read-out: Papp

Structure (SMILES)	half-life [5] [h]	In vitro PBMC Loading Rate [8] [nM/h]	half-life [9] [h]	(head line blank) [10] [mL/min/kg]	F [10]	Vdβ [10]	other results
O=C(NCc1ccccn1)c1c2c(c(O)c3ncccc13)C(=O)N(Cc1ccc(F)cc1)C2 [Compound 2001]							Papp [1, 13]: 5 ×10⁻⁶ cm/s; F Dog [2]: 28%; Vdb Dog [2]: 0.8 L/kg; clearance [2]: 1.17 mL/min/kg; F Rat [3]: 2%; Vdb Rat [3]: 8.2 L/kg; clearance [3]: 183 mL/min/kg
CCOC(=O)[C@H](C)OP(=O)(CCN1CCN(C(=O)Oc2c3c(c(O)c4ncccc24)C(=O)N(Cc2ccc(F)cc2)C3)CC1)Oc1ccccc1 (some centres unmarked) [Compound 2005]	1.07	5291	1.65	60	3%	10.8 L/kg	IC50 [4]: < 1200 nM; CC50 [6]: < 5000 nM; EC50 [7]: < 20 nM
CCOC(=O)[C@H](C)OP(=O)(CCN1CCN(C(=O)c2c3c(c(O)c4ncccc24)C(=O)N(Cc2ccc(F)cc2)C3)CC1)Oc1ccccc1 (some centres unmarked) [Compound 2011]	0.733	4810	1.4	76.7	0.3%	9.1 L/kg	
CCOC(=O)[C@H](C)NP(=O)(CCNC(=O)c1c2c(c(O)c3ncccc13)C(=O)N(Cc1ccc(F)cc1)C2)Oc1ccccc1 (some centres unmarked) [Compound 2006]	1.73	7830	1.63	15	BLQ	0.7 L/kh	
CCOC(=O)[C@H](C)NP(=O)(CCN1CCN(C(=O)c2c3c(c(O)c4ncccc24)C(=O)N(Cc2ccc(F)cc2)C3)CC1)Oc1ccccc1 (some centres unmarked) [Compound 2015]				13		0.8 L/kh	
CCOC(=O)C(C)NP(=O)(CCN(C)C(=O)c1c2c(c(O)c3ncccc13)C(=O)N(Cc1ccc(F)cc1)C2)Oc1ccccc1 (centres unmarked) [Compound 2008]	0.733	19551	1.95	15	0.5%	1.8 L/kg	Papp ([1]; human, Caco-2, read-out: Papp): 0.1 ×10⁻⁶ cm/s
CCOP(=O)(CN1CCN(C(=O)Oc2c3c(c(O)c4ncccc24)C(=O)N(Cc2ccc(F)cc2)C3)CC1)OCC [Compound 2003]							IC50 [4]: < 600 nM; CC50 [6]: < 5000 nM; EC50 [7]: < 20 nM
CCOC(=O)[C@H](C)NP(=O)(CCCNC(=O)c1c2c(c(O)c3ncccc13)C(=O)N(Cc1ccc(F)cc1)C2)Oc1ccccc1 (some centres unmarked) [Compound 2016]				6.7		0.7 L/kh	
CCOC(=O)[C@H](C)NP(=O)(CCN(C)C(=O)c1c2c(c(O)c3ncccc13)C(=O)N(Cc1ccc(F)cc1)C2)OCC(F)(F)F (some centres unmarked) [Compound 2018]							EC50 [11]: 0.1 nM
CCOP(=O)(CNC(=O)CCSC1c2c(c(O)c3ncccc3c2OC)C(=O)N1Cc1ccc(F)cc1)OCC (centres unmarked) [Compound 2021]							IC50 ([4]; read-out: IC50 Strand Transfer): < 1200 nM; EC50 [7]: < 500 nM; CC50 [12]: < 50000 nM
CCOC(=O)[C@H](C)OP(=O)(CCNC(=O)c1c2c(c(O)c3ncccc13)C(=O)N(Cc1ccc(F)cc1)C2)Oc1ccccc1 (some centres unmarked) [Compound 2014]				16.7	0.04%	1.1 L/kg	
CCOC(=O)[C@H](C)NP(=O)(CO[C@H](C)CNC(=O)c1c2c(c(O)c3ncccc13)C(=O)N(Cc1ccc(F)cc1)C2)Oc1ccccc1 (some centres unmarked) [Compound 2013]	0.883	5774	1.33	15		4 L/kg	Papp ([1]; Caco-2): BQL
COP(=O)(CCN1CCN(C(=O)Oc2c3c(c(O)c4ncccc24)C(=O)N(Cc2ccc(F)cc2)C3)CC1)OC [Compound 2004]							IC50 [4]: < 600 nM; CC50 [6]: < 5000 nM; EC50 [7]: < 20 nM
O=C(NCc1ccc(F)cc1)c1nc(N2CCCCS2(=O)=O)c2cccnc2c1O [Compound L-870810, reference compound]							Papp [1, 13]: 40 ×10⁻⁶ cm/s; F Dog [2]: 50%; Vdb Dog [2]: 0.5 L/kg; clearance [2]: 1.17 mL/min/kg; F Rat [3]: 42%; Vdb Rat [3]: 0.72 L/kg; clearance [3]: 1.5 mL/min/kg
CCOC(=O)[C@H](C)NP(=O)(CCCN(C)C(=O)c1c2c(c(O)c3ncccc13)C(=O)N(Cc1ccc(F)cc1)C2)Oc1ccccc1 (some centres unmarked) [Compound 2012]	0.767	4831	2.57	12	0.2%	0.7 L/kh	Papp ([1]; Caco-2): BQL
CCOP(=O)(COc1c2c(c(O)c3ncccc13)C(=O)N(Cc1ccc(F)cc1)C2)OCC [Compound 2002]							IC50 ([4]; read-out: IC50 Strand Transfer): < 600 nM; EC50 [7]: < 20 nM; CC50 [12]: < 5000 nM
CCOC(=O)[C@H](C)NP(=O)(CCN(C)C(=O)c1c2c(c(O)c3ncccc13)C(=O)N(Cc1ccc(F)cc1)C2)OCC(F)(F)F (some centres unmarked) [Compound 2009]	1.22			43.3	7%	3 L/kg	Papp ([1]; human, Caco-2, read-out: Papp): 1 to 4 ×10⁻⁶ cm/s
CCOC(=O)[C@H](C)NP(=O)(CCN(C)C(=O)c1c2c(c(O)c3ncccc13)C(=O)N(Cc1ccc(F)cc1)C2)OCC(F)(F)F (some centres unmarked) [Compound 2017]							EC50 [11]: 1 nM
CCOC(=O)[C@H](C)NP(=O)(CCNC(=O)c1c2c(c(O)c3ncccc13)C(=O)N(Cc1ccc(F)cc1)C2)N[C@@H](C)C(=O)OCC [Compound 2007]	3.23		2.65	58.3		4 L/kg	Papp ([1]; Caco-2): BQL
